According to patent US20030181436A1, “Treatment for AIDS, HIV, and other related diseases and compounds for use therewith” (priority 2001, published 2003):

Columns and labels:
Format in all cases: cell-based
[1] = test system: TNFα induced ACH-2 cells (HIV IIIB provirus); experiment: ACH-2 latent infection assay, supernatant reverse transcriptase activity; design: % VC (percent of virus control): unit not given here; conditions: exp 2
Experimental: (§1) U1 and ACH-2 cells were obtained from the AIDS Research and Reference Reagent Program and maintained under standard culture conditions in RPMI 1640 supplemented with 10% fetal bovine serum (heat inactivated), supplemented with 2 mM […], 100U/ml penicillin and 100 μg/ml, streptomycin. U1 cells were derived from the histocytic leukemia cell line U937, and contain a single integrated copy (HIV IIIB) […] a cytokine and/or phorbol inducible provirus. ACH-2 cells are derived from the A3.01 T lymphoblastic cell line, and contain 2 copies of the HIV IIIB provirus, however only one is cytokine and/or phorbol inducible. Cultures were maintained in such a way as to ensure exponential growth of the populations. At the time of the assay, cells were collected by centrifugation and counted by hemacytometer. If cell viability by Trypan Blue dye exclusion was less than 70% the assay was terminated. The cells were adjusted to 5×10^4 cells/mL and 100 μL, placed in 96 well plates with 100 μL media containing a final concentration of […] TNFα and the test compound. Cultures were incubated for 3 days and supernatants harvested. Compound toxicity was determined by MTS dye reduction. Virus expression was measured by supernatant reverse transcriptasc activity.
(§2) Reverse transcriptase activity was measured in cell-free supernatants. Tritiated thymidine triphosphate (NEN) (TTP) was resuspended in distilled H2O at 5 Ci/mL. Poly rA and oligo dT were prepared as a stock solution which was kept at −20° C. The RT reaction buffer was prepared fresh on a daily basis and consists of 125 μL 1.0 M EGTA, 125 μL dH2O, 110 μL 10% SDS, 50 μL 1.0 M Tris (pH 7.4), 50 μL, 1.0 M DTT, and 40 μL 1.0 M MgCl2. These three solutions were mixed together in a ratio of 2 parts TTP, 1 part poly rA:oligo dT, and 1 part reaction buffer. Ten microliters of this reaction mixture was placed in a round bottom microtiter plate and 15 μL of virus containing supernatant was added and mixed. The plate was incubated at 37° C. in a water bath with a solid support to prevent submersion of the plate and incubated for 60 minutes. Following reaction, the reaction volume was spotted onto pieces of DE81 paper, washed 5 times for 5 minutes each in a 5% sodium phosphate buffer, 2 times for 1 minute each in distilled water, 2 times for 1 minute each in 70% ethanol, and then dried. Opti-Fluor O was added to each sample and incorporated radioactivity was quantitated utilizing a Wallac 1450 Microbetaplus liquid scintillation counter.

[2] = test system: TNFα induced U1 cells (HIV IIIB provirus); experiment: U1 latent infection assay, supernatant reverse transcriptase activity; conditions: exp 2
Experimental: as §1, §2

HeLa CD4 LTR β-gal cells = experiment: Cytotoxicity for HeLa CD4 LTR β-gal cells; conditions: initial testing
Experimental: At assay termination the assay plates were stained with the soluble tetrazolium-based dye MTS (CellTiter® Reagent, Promega) to determined cell viability and quantify compound toxicity. […] At termination of the assay 20 μL of MTS reagent was added per well. The wells were incubated for 4 h at 37° C., 5% CO2. Adhesive plate scalers were used in place of the lids, the sealed plate was inverted several times to mix the soluble formazan product and the plate was read spectrophotometrically at 490 nm with a 650 nm reference wavelength on a Molecular Devices Vmax plate reader.
This cell line represents one of 3 standard models for performing time of addition assays.

HIV = experiment: HeLa CD4 LTR β-gal time of addition assay; conditions: single round, high M.O.I.
Text: This time of addition assay measures reproducible events from initial virus binding to the trans activation of the β-galactosidase reporter by newly produced Tat protein. This is a single round of infection assay and is thus “cleaner” and more “precise” than a multi-round time of addition assay. […] Since it is hypothesized that the K and Z compounds work by interfering with virus transcription the later possibility seems more likely. Thus the use of a time of addition assay with PBMCs was utilized.

Substance: Potassium Iodiscorbate [Compound K]
- % VC (percent of virus control) ([1]; 0.00063 uM): 114.4
- RT ACTIVITY (cpm) MEAN ([1]; 0.00063 uM): 22470 cpm
- % VC (percent of virus control) ([1]; 0.002 uM): 98.0
- RT ACTIVITY (cpm) MEAN ([1]; 0.002 uM): 19246 cpm
- % VC (percent of virus control) ([1]; 0.00625 uM): 105.2
- RT ACTIVITY (cpm) MEAN ([1]; 0.00625 uM): 20672 cpm
- % VC (percent of virus control) ([1]; 0.02 uM): 125.7
- RT ACTIVITY (cpm) MEAN ([1]; 0.02 uM): 24682 cpm
- % VC (percent of virus control) ([1]; 0.0625 uM): 119.1
- RT ACTIVITY (cpm) MEAN ([1]; 0.0625 uM): 23403 cpm
- % VC (percent of virus control) ([1]; 0.2 uM): 115.0
- RT ACTIVITY (cpm) MEAN ([1]; 0.2 uM): 22593 cpm
- % VC (percent of virus control) ([1]; 0.625 uM): 97.7
- RT ACTIVITY (cpm) MEAN ([1]; 0.625 uM): 19189 cpm
- % VC (percent of virus control) ([1]; 2 uM): 93.6
- RT ACTIVITY (cpm) MEAN ([1]; 2 uM): 18381 cpm
- % VC (percent of virus control) ([1]; 6.25 uM): 32.7
- RT ACTIVITY (cpm) MEAN ([1]; 6.25 uM): 6432 cpm
- % VC (percent of virus control) ([1]; 20 uM): 15.3
- RT ACTIVITY (cpm) MEAN ([1]; 20 uM): 3011 cpm
- % VC (percent of virus control) ([1]; 62.5 uM): 0.58
- RT ACTIVITY (cpm) MEAN ([1]; 62.5 uM): 113 cpm
- % VC (percent of virus control) ([1]; 200 uM): 0.55
- RT ACTIVITY (cpm) MEAN ([1]; 200 uM): 108 cpm
- % VC ([2]; 0.00063 μM): 112.6%
- RT ACTIVITY (cpm) MEAN ([2]; 0.00063 μM): 3019 cpm
- % VC ([2]; 0.002 μM): 118.4%
- RT ACTIVITY (cpm) MEAN ([2]; 0.002 μM): 3174 cpm
- % VC ([2]; 0.00625 μM): 111.5%
- RT ACTIVITY (cpm) MEAN ([2]; 0.00625 μM): 2989 cpm
- % VC ([2]; 0.02 μM): 98.4%
- RT ACTIVITY (cpm) MEAN ([2]; 0.02 μM): 2640 cpm
- % VC ([2]; 0.0625 μM): 107.1%
- RT ACTIVITY (cpm) MEAN ([2]; 0.0625 μM): 2872 cpm
- % VC ([2]; 0.2 μM): 110.0%
- RT ACTIVITY (cpm) MEAN ([2]; 0.2 μM): 2949 cpm
- % VC ([2]; 0.625 μM): 68.1%
- RT ACTIVITY (cpm) MEAN ([2]; 0.625 μM): 1826 cpm
- % VC ([2]; 2 μM): 81.7%
- RT ACTIVITY (cpm) MEAN ([2]; 2 μM): 2191 cpm
- % VC ([2]; 6.25 μM): 73.2%
- RT ACTIVITY (cpm) MEAN ([2]; 6.25 μM): 1962 cpm
- % VC ([2]; 20 μM): 45.3%
- RT ACTIVITY (cpm) MEAN ([2]; 20 μM): 1216 cpm
- % VC ([2]; 62.5 μM): 29.07%
- RT ACTIVITY (cpm) MEAN ([2]; 62.5 μM): 779 cpm
- % VC ([2]; 200 μM): 17.50%
- RT ACTIVITY (cpm) MEAN ([2]; 200 μM): 469 cpm
- cytotoxic effects on the HeLa CD4 LTR β-gal cells (HeLa CD4 LTR β-gal cells): no significant cytotoxic effects
- inhibition of HIV replication (HIV): failed to inhibit
